What is called EC50 is the midpoint of the concentration-response curve. Read a high EC50 as weaker potency.

For series [1] the following is noted: intravenous (IV) formulation; cited from earlier work.
The target of the next series is T1, human RXFP1 (Homo sapiens, UniProt Q9HBX9).
T1 construct: expressed in transfected cells
T1 sequence (Q9HBX9 1-757): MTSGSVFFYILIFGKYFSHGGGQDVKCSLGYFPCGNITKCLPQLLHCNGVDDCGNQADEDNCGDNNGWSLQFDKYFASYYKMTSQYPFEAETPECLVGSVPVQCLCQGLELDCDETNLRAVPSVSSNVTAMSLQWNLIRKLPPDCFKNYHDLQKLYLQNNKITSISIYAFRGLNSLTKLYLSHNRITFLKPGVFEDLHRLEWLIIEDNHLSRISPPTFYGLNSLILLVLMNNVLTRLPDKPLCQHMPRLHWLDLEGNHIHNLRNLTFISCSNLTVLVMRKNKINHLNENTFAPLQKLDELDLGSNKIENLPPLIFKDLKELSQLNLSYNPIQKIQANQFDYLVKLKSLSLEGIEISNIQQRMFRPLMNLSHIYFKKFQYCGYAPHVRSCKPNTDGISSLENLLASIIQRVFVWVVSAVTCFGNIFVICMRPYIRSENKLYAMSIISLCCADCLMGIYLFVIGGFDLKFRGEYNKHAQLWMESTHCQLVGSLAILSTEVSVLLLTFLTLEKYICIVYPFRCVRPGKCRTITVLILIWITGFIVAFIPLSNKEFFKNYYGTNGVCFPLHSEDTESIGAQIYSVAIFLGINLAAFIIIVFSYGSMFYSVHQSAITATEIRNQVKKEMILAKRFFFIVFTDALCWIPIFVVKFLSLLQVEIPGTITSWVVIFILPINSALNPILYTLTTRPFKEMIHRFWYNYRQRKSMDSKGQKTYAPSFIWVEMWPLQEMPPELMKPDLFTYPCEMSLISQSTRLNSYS
Kind of series: hRXFP1 HEK293 cAMP assay (HTRF). It is filed as cell-based. As to conditions: HEK293 cells stably expressing human RXFP1, 30 min at room temperature. Summed up: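 Intracellular cAMP was read by HTRF, with potency fitted to a 4-parameter logistic curve. Compound exposure (0.010 nM–50 μM final, 2% DMSO) lasted 30 min at room temperature. Cells were hRXFP1-HEK293 at 1500 per well in IBMX-containing (0.5 mM) HEPES-buffered HBSS.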
On the technique in general: cAMP levels reflect the balance of adenylyl cyclase and phosphodiesterase activity.

“Serelaxin: "an intravenous (IV) formulation of the recombinant human relaxin peptide with a relatively short first-phase pharmacokinetic half-life of 0.09 hours"”: the first-phase pharmacokinetic half-life in series [1] was 5.4 min. Regarding `COc1ccc(CCC(C)(C)O)cc1C(=O)NC1C2CCC(/C2=C/CC(F)F)[C@@H]1C(=O)Nc1ccc(F)c(C(F)(F)F)c1` (stereo partly drawn) [Example 175, (7Z)-7-(3,3-difluoropropylidene)-N-[4-fluoro-3-(trifluoromethyl)phe-nyl]-3-[5-(3-hydroxy-3-methylbutyl)-2-methoxybenzamido] bicyclo[2.2.1]heptane-2-carboxamide], the EC50 on human RXFP1 turned out to be 311 nM. On to `COc1ccc(C2CC2CO)cc1C(=O)N[C@@H]1C2CCC(/C2=C/C(F)(F)F)[C@@H]1C(=O)Nc1ccc(F)c(C(F)(F)F)c1` (single isomer, unassigned) [Example 65], for which the concentration for a half-maximal effect (EC50) on human RXFP1 worked out at 250 nM. In the case of `COc1ccc(S(=O)(=O)N2CC3CCC(C2)O3)cc1C(=O)N[C@H]1[C@@H](C(=O)Nc2ccc(F)c(C(F)(F)F)c2)[C@H]2CC[C@@H]1/C2=C\C1CC1` [Example 221, (1R,2S,3R,4R,7Z)-7-(cyclopropylmethyl-idene)-N-[4-fluoro-3-(trifluoromethyl)phenyl]-3-(2-methoxy-5-{8-oxa-3-azabicyclo[3.2.1]octane-3-sulfonyl}benzamido) bicyclo[2.2.1]heptane-2-carboxamide], the EC50 on human RXFP1 stood at 44.9 nM.

Turning to `COc1ccc(S(=O)(=O)Nc2nnn[nH]2)cc1C(=O)NC1C2CCC(/C2=C/C(F)(F)F)[C@@H]1C(=O)Nc1ccc(F)c(C(F)(F)F)c1` (stereo partly drawn) [Example 206, (2S,3R,7Z)-N-[4-fluoro-3-(trifluoromethyl)phe-nyl]-3-{2-methoxy-5-[(1H-1,2,3,4-tetrazol-5-yl)sulfamoyl]benza-mido}-7-(2,2,2-trifluoroethylidene)bi-cyclo[2.2.1]heptane-2-carboxamide], the EC50 on human RXFP1 was 3050 nM. `COc1ccc(C(C)(C)CCO)cc1C(=O)N[C@H]1[C@@H](C(=O)Nc2ccc(F)c(C(F)(F)F)c2)[C@H]2CC[C@@H]1/C2=C\C(F)(F)F` [Example 272, (1R,2S,3R,4R,7Z)-N-[4-fluoro-3-(trifluoromethyl)phenyl]-3-[5-(4-hydroxy-2-methylbutan-2-yl)-2-methoxybenzamido]-7-(2,2,2-trifluoroethylidene) bicyclo[2.2.1]heptane-2-carboxamide] registered a concentration for a half-maximal effect (EC50) on human RXFP1 of 422 nM. On the same count and under the same terms, in the case of `COc1ccc(CCC(C)(C)O)cc1C(=O)NC1C2CCC(/C2=C/CC(C)(C)C)[C@@H]1C(=O)Nc1ccc(F)c(C(F)(F)F)c1` (stereo partly drawn) [Example 163, (7Z)-7-(3,3-dimethylbutylidene)-N-[4-fluoro-3-(trifluoromethyl)phe-nyl]-3-[5-(3-hydroxy-3-methylbutyl)-2-methoxybenzamido] bicyclo[2.2.1]heptane-2-carboxamide] it was 278 nM.

At human RXFP1, `COc1ccc(/C=C/C(=O)N[C@H]2C[C@H](O)C2)cc1C(=O)N[C@@H]1C2CCC(/C2=C/C2CC2)[C@@H]1C(=O)Nc1ccc(F)c(C(F)(F)F)c1` (stereo partly drawn) [Example 127, (2S,3R,7Z)-7-(cyclopropylmethyli-dene)-N-[4-fluoro-3-(trifluoromethyl)phe-nyl]-3-{2-methoxy-5-[(1E)-2-{[(1r,3r)-3-hydroxycyclobutyl]carbamoyl}eth-1-en-1-yl]benzamido}bicyclo [2.2.1]heptane-2-carboxamide] displayed an EC50 of 74 nM. On to `COc1ccc(S(=O)(=O)N2CCN[C@@H](CO)C2)cc1C(=O)NC1C2CCC(/C2=C/C(F)(F)F)[C@@H]1C(=O)Nc1ccc(F)c(C(F)(F)F)c1` (stereo partly drawn) [Example 204, (2S,3R,7Z)-N-[4-fluoro-3-(trifluoromethyl)phe-nyl]-3-(5-{[(3R)-3-(hydroxymethyl)piper-azin-1-yl]sulfonyl}-2-methoxybenzamido)-7-(2,2,2-trifluoroethylidene)bi-cyclo[2.2.1]heptane-2-carboxamide], for which the response on human RXFP1 was half-maximal at 341 nM (EC50). In turn, `COc1ccc(C2CCCC(NCC(=O)O)C2)cc1C(=O)N[C@@H]1C2CCC(/C2=C/C(F)(F)F)[C@@H]1C(=O)Nc1ccc(F)c(C(F)(F)F)c1` (stereo partly drawn) [Example 354] came in with a half-maximal effective concentration (EC50) on human RXFP1 of 4990 nM.

`COc1ccc(C23CCC(C(C)(C)O)(CC2)CC3)cc1C(=O)N[C@H]1[C@@H](C(=O)Nc2ccc(F)c(C(F)(F)F)c2)[C@H]2CC[C@@H]1/C2=C\C1CC1` (single isomer, unassigned) [Example 274]: on human RXFP1, a half-maximal response (EC50) required 99.8 nM. This EC50 is about 50-fold lower than that of the compound before. Same read-out and setting: in the case of `COc1ccc(S(C)(=O)=O)cc1C(=O)N[C@@H]1C2CCC(C2=C(C)C)[C@@H]1C(=O)Nc1ccc(F)c(C(F)(F)F)c1` (stereo partly drawn) [Example 208, (2S,3R)-N-[4-fluoro-3-(trifluoromethyl)phenyl]-3-(5-methanesulfonyl-2-methoxybenzamido)-7-(propan-2-ylidene)bicyclo[2.2.1] heptane-2-carboxamide] it was 2600 nM; in that of `COc1ccc(S(=O)(=O)N2CCN(CCCO)CC2)cc1C(=O)N[C@H]1[C@@H](C(=O)Nc2ccc(F)c(C(F)(F)F)c2)[C@H]2CC[C@@H]1/C2=C\C(F)(F)F` [Example 211, (1R,2S,3R,4R,7Z)-N-[4-fluoro-3 (trifluoromethyl)phenyl]-3-(5-{[4-(3-hydroxypropyl)piperazin-1-yl]sulfonyl}-2-methoxybenzamido)-7-(2,2,2-trifluoroethylidene) bicyclo[2.2.1] heptane-2-carboxamide], 551 nM. With `COc1ccc(S(N)(=O)=O)cc1C(=O)N[C@@H]1C2CCC(C2=C(C)C)[C@@H]1C(=O)Nc1ccc(F)c(C(F)(F)F)c1` (stereo partly drawn) [Example 207, (2S,3R)-N-[4-fluoro-3-(trifluoromethyl)phenyl]-3-(2-methoxy-5-sulfamoylbenzamido)-7-(propan-2-ylidene)bicyclo[2.2.1] heptane-2-carboxamide], the EC50 on human RXFP1 worked out at 890 nM. In the case of `COc1ccc(C(=O)NCC2(S(C)(=O)=O)CC2)cc1C(=O)N[C@H]1[C@@H](C(=O)Nc2ccc(F)c(C(F)(F)F)c2)[C@H]2CC[C@@H]1/C2=C\C1CC1` [Example 232, N3-[(1R,2R,3S,4R,7Z)-7-(cyclopropyl-methylidene)-3-{[4-fluoro-3-(trifluoromethyl)phenyl]carbamoyl}bicyclo[2.2.1]heptan-2-yl]-NI-[(1-methanesulfonyl-cyclopropyl)methyl]-4-methoxybenzene-1,3-dicarboxamide], the response at human RXFP1 was half-maximal at 0.95 nM (EC50).

These data come from patent US20250268903A1, “RXFP1 AGONISTS” (BRISTOL-MYERS SQUIBB COMPANY, priority 2021, published 2025).
